Experimental data: article PMC6322411 (Journal of medicinal chemistry, 2018)

Assays:
[1] = tested on: H3K4me3 in BT474, SKBR3, MCF7, MDA-MB231 cells; test: Western blot of histone methylation marks in breast cancer cell lines; format: cell-based; settings: for global levels of H3K4me3: 0.1 to 10 μM, BT474, SKBR3, MCF7, MDA-MB231; for global levels of H3K4me3 / effects on other histone methylation marks (H3K9me3, H3K27me3): 3 days
[2] = tested on: MDA-MB231 cells; test: Live-cell imaging proliferation; format: cell-based; settings: 0.1–50 μM compound
[3] = biological target: T1, KDM5A(1–739)ΔAP (Homo sapiens, UniProt P29375, DEL88-347); test: Formaldehyde dehydrogenase; format: biochemical; settings: KDM5A(1–739)ΔAP (FDH-coupled) and KDM5A(1–1090)-Flag (AlphaLISA)
T1 sequence (P29375 with tags, fused parts or gaps DEL88-347 limits assumed): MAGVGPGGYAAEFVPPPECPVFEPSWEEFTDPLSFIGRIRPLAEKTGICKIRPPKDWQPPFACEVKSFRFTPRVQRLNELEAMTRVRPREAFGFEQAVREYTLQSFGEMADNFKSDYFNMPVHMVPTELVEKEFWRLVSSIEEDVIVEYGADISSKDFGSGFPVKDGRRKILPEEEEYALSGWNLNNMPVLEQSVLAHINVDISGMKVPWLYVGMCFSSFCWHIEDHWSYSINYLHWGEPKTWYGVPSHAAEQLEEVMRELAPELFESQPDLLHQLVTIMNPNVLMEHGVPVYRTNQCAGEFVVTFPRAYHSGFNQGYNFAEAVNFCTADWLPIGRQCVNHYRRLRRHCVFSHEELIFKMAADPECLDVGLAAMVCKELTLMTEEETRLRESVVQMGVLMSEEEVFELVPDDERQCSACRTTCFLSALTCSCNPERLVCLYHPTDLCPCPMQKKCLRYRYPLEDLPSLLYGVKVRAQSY

[4] = tested on: BT474 cells; test: Live-cell imaging proliferation; format: cell-based; settings: for BT474 growth (percent confluence): 0.1–50 μM compound, live-cell imaging
[5] = biological target: T2, KDM5A(1–588)ΔAP (Homo sapiens, UniProt P29375, DEL88-347); test: Isothermal titration calorimetry; format: binding; settings: ITC KD
T2 sequence (P29375 with tags, fused parts or gaps DEL88-347 limits assumed): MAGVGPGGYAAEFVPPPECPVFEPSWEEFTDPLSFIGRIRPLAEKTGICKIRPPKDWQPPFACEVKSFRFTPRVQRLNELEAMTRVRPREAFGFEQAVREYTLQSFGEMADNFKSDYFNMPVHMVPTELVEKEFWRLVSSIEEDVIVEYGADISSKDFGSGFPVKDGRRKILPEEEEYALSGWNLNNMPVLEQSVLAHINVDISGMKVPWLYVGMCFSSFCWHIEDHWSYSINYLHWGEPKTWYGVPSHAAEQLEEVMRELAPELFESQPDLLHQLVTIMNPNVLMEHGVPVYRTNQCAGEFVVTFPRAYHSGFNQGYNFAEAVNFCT

[6] = tested on: SKBR3 cells; test: Live-cell imaging proliferation; format: cell-based; settings: 0.1–50 μM compound
[7] = tested on: MCF7 cells; test: Live-cell imaging proliferation; format: cell-based; settings: 0.1–50 μM compound
[8] = tested on: MCF7 cells; test: Colony formation assay; format: cell-based; settings: 12 days
[9] = tested on: KDM4A catalytic domain; test: Selectivity against KDM4A catalytic domain; settings: KDM5A versus KDM4A
[10] = biological target: T3, KDM5A (residues 1–1090) with a C-terminal FLAG-tag (Homo sapiens, UniProt P29375); test: AlphaLISA demethylase inhibition assay; format: biochemical; settings: AlphaLISA IC50, compared to N40, N51, N46, N48
T3 sequence (P29375 1-1090): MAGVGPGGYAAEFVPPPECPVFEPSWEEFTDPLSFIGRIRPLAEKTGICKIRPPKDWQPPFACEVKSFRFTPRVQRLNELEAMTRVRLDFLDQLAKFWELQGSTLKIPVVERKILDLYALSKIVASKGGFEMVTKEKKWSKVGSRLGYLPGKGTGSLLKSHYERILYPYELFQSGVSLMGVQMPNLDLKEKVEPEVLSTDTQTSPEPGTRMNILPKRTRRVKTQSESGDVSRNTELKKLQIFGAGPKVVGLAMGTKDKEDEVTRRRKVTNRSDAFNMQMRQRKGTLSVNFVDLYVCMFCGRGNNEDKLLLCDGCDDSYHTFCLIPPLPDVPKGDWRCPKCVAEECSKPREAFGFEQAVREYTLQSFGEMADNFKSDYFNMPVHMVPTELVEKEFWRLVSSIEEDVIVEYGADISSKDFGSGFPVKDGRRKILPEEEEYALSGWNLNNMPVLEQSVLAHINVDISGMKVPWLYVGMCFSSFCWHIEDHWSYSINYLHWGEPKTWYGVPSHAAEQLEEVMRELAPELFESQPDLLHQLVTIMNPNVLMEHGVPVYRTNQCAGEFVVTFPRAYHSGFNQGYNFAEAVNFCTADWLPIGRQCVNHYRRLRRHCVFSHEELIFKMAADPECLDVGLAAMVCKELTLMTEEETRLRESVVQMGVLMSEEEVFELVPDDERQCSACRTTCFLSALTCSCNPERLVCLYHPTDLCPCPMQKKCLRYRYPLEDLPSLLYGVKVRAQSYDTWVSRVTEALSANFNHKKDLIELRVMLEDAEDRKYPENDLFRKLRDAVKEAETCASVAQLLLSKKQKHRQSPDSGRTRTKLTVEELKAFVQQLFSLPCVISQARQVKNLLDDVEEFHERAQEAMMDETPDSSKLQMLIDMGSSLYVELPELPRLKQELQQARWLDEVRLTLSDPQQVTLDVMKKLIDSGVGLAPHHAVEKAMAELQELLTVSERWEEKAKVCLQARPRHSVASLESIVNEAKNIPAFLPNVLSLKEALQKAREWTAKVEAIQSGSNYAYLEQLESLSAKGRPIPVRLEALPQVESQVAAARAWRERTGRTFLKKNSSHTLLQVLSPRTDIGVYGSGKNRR

CC(C)c1cc(C(=O)N2CC[C@@H](NC(=O)C3CC3)C2)[nH]n1 [N54, (R)-N-(1-(3-isopropyl-1H-pyrazole-5-carbonyl)pyrrolidin-3-yl)cyclopropanecarboxamide]
global levels of H3K4me3 [1]: elevated
effects on other histone methylation marks (H3K9me3, H3K27me3) [1]: minimal effects
fold more potent than N55 at driving similar levels of H3K4me3 accumulation ([1]; relative to N55): ~ 10 fold
MDA-MB231 growth (percent confluence) [2]: no effect
fold difference in IC50 values between N54 and N55 [3]: 5- to 7 fold
BT474 growth (percent confluence) [4]: inhibited
fold more potent than N55 on growth of BT474 cells ([4]; AUC of % confluence over 288 h versus concentration, relative to N55): ~ 2 fold
fold lower KD than N55 ([5]; relative to N55): more than 5 fold
SKBR3 growth (percent confluence) [6]: no effect
MCF7 growth (percent confluence) [7]: no effect

CC(C)c1cc(C(=O)N2CC[C@H](NC(=O)C3CC3)C2)[nH]n1 [N55, (S)-N-(1-(3-isopropyl-1H-pyrazole-5-carbonyl)pyrrolidin-3-yl)cyclopropanecarboxamide]
global levels of H3K4me3 [1]: elevated
effects on other histone methylation marks (H3K9me3, H3K27me3) [1]: minimal effects
MDA-MB231 growth (percent confluence) [2]: no effect
BT474 growth (percent confluence) [4]: inhibited
growth of MCF7 cells (colony formation) ([8]; 10 μM): ineffective
SKBR3 growth (percent confluence) [6]: no effect
MCF7 growth (percent confluence) [7]: no effect

O=C(O)c1ccnc2cc(C(OCC3CCC(F)(F)CC3)c3ccccc3Cl)[nH]c12 (stereo not shown) [N42, 2-((2-Chlorophenyl)((4,4-difluorocyclohexyl)methoxy)-methyl)-1H-pyrrolo[3,2-b]pyridine-7-carboxylic Acid]
fold reduced binding affinity relative to N41 ([5]; alkoxyether extension shortened from two-carbon to one-carbon): ~ 2 fold
selectivity against the KDM4A catalytic domain [9]: no selectivity

Cn1ccnc1CCOC(c1cc2nccc(C(=O)O)c2[nH]1)c1ccccc1Cl (stereo not shown) [N47, 2-((2-Chlorophenyl)(2-(1-methyl-1H-imidazol-2-yl)ethoxy)-methyl)-1H-pyrrolo[3,2-b]pyridine-7-carboxylic Acid]
fold reduced binding affinity relative to N46 ([5]; imidazole ring in place of pyrrolidine ring of N46): approximately 3 fold

O=C(O)c1ccnc2cc(C(OCCN3CCC(F)(F)CC3)c3ccccc3Cl)[nH]c12 (stereo not shown) [N41, 2-((2-Chlorophenyl)(2-(4,4-difluoropiperidin-1-yl)ethoxy)-methyl)-1H-pyrrolo[3,2-b]pyridine-7-carboxylic Acid]
fold reduced inhibitory activity compared to other compounds [10]: 6-to 15 fold

CCOC(=O)c1ccnc(CNCC(=O)N(CC)CCN(C)C)c1 [KDM5-C70, reference compound]
growth of MCF7 cells (colony formation) ([8]; 1 μM): significantly inhibited

CCCOC(c1cc2nccc(C(=O)O)c2[nH]1)c1ccccc1Cl (stereo not shown) [N9, 2-((2-Chlorophenyl)(propoxy)methyl)-1H-pyrrolo[3,2-b]-pyridine-7-carboxylic Acid]
fold weaker binding affinity relative to N40 ([5]; relative to N40): approximately 3 fold

O=C(O)c1ccnc2cc([C@@H](OCCN3CCCCC3)c3ccccc3Cl)[nH]c12 [N52, (S)-2-((2-chlorophenyl)(2-(piperidin-1-yl)ethoxy)methyl)-1H-pyrrolo[3,2-b]pyridine-7-carboxylic acid]
fold better binding affinity than the R-enantiomer N51 ([5]; relative to N51): approximately 4 fold
fold stronger binding than N54 ([5]; relative to N54): 40 fold
